Measurements: PMC4030805 (Analytical Chemistry, 2014)

Molecular target: biotinylated Bcl-xL immobilized on streptavidin magnetic beads (Homo sapiens, UniProt Q07817)
Test: AMMP target-binding assay with in vitro translated peptides
Details: concentration taken from the HA tag competition assay (Figure 3c)

Sequence of biotinylated Bcl-xL immobilized on streptavidin magnetic beads (Q07817 1-209 limits assumed): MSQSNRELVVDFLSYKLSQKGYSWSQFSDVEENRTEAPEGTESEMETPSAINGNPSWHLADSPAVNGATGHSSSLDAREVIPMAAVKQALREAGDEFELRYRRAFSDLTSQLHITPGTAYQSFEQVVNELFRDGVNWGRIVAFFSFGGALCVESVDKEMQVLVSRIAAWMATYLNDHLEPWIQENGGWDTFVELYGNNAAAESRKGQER

- peptide concentration giving robust signal over background: 100 pM
Substance: H-MIETITIYKYKKAADHFSMSMGSGSGSYPYDVPDYA-NH2 [Pep1]
